From US20140275234A1, “COMPOSITIONS AND METHODS OF USING CRYSTALLINE FORMS OF WORTMANNIN ANALOGS” (ONCOTHYREON INC., priority 2010, published 2014)

Columns and labels:
[1] = Initial solvent screen, visual dissolution on adding solvent in 50 μL portions; assay type: physicochemical; settings: for Soluble: RT
Experimental: This initial solvent screen of PX-866 in 18 solvents was executed to select appropriate solvents for slurry experiments. Approximately 1-2 mg of the material was placed in 2 dram glass vials and the chosen solvents were added in 50 μL portions to determine the minimum amount of solvent needed for dissolution. The vials were shaken at ambient temperature and visually inspected between each addition to determine if complete dissolution had taken place.
To estimate the ratio of primary solvent to anti-solvent necessary for use in the slurry experiments, heptane or water was then added to the dissolved PX-866 in […], portions until a turbid solution was formed or solids precipitated out. […] The exceptions occurred when MeCN and AcOH were used as the primary solvent as the product oiled out upon anti-solvent addition.

[2] = Crystallization study in anisole, PX-866 quantified in supernatant; assay type: physicochemical
Experimental: 53 mg of PX-866 was placed in a 2 mL flat bottom vial and then added ˜940 μL (18 vol.) of anisole at RT. The supernatant was transferred to another vial and cooled down first to 4° C., and then to −20° C. (PX-866 quantified in aliquots of the supernatant at both temperatures). The resulted solids were dried under a stream of nitrogen and further dried under vacuum at RT for 16 hours, then dried under vacuum at 40° C. for 16 hours. PX-866 concentration in supernatant: RT: 9.9 mg/mL; 4° C.: 7.0 mg/mL; −20° C.: 6.2 mg/mL.

[3] = Formulation and handling studies of amorphous and crystalline forms; assay type: physicochemical
Description: In some embodiments, crystalline forms of Compound 1 and/or analogs thereof show less variability in vitro dissolution profiles as compared to the amorphous form. In some instances, crystalline forms of Compound 1 and/or analogs thereof have better flowability as compared to the amorphous form.

[4] = Water slurry at ambient temperature; assay type: physicochemical; settings: 0.5 g slurry in deionized water
Experimental: An initial solvent screen was performed on PX-866 to determine appropriate primary solvents and anti-solvents. Slurries and several precipitations were then performed utilizing several primary solvents and anti-solvents at 50 mg scale. […] The water slurry was then scaled up to 0.5 g and performed at ambient temperature. Since there was a concern for degradation taking place during the slurry at ambient temperature an additional slurry was performed on 0.5 g scale at 10° C. in an attempt to minimize any potential degradation.

[5] = tested on: phosphatidylinositol-3-kinase (PI-3K); settings: cited from earlier work
[6] = as described in WO 2011/153488 and WO 2011/153495; cited from earlier work
pulmonary fibrosis = settings: as described in WO 2010/118250; cited from earlier work

With C=CCN(/C=C1/C(=O)O[C@H](COC)[C@@]2(C)C1=C(O)C(=O)C1=C2[C@H](OC(C)=O)C[C@]2(C)C(=O)CC[C@@H]12)CC=C [PX-866, (4S,4aR,5R,6aS,9aR, Z)-1-((diallylamino)methylene)-11-hydroxy-4-(methoxymethyl)-4-a,6a-dimethyl-2,7,10-trioxo-1,2,4,4a,5,6,6a,7,8,9,9a,10-dodecahydroindeno[4,5-h]isochromen-5-yl acetate] the Soluble ([1]; AcOH, vial conc. 48.0 mg/mL) was “Yes”, the Soluble ([1]; Acetone, vial conc. 38.0 mg/mL) was “Yes” and the Soluble ([1]; Acetone, vial conc. 102.0 mg/mL (Table 2A)) was “Yes”. The Soluble ([1]; DCM, vial conc. 48.0 mg/mL) was “Yes”, the Soluble ([1]; DMF, vial conc. 56.0 mg/mL) was “Yes” and the Soluble ([1]; Dioxane, vial conc. 38.0 mg/mL) was “Yes”. The Soluble ([1]; EtOAc, vial conc. 38.0 mg/mL) was “Yes”, the Soluble ([1]; EtOH, vial conc. 56.0 mg/mL) was “Yes” and the Soluble ([1]; EtOH, vial conc. 164.0 mg/mL (Table 2A)) was “Yes”. The Soluble ([1]; Heptane, vial conc. 0.4 mg/mL) was “No”, the Soluble ([1]; IPA, vial conc. 28.0 mg/mL) was “Yes” and the Soluble ([1]; IPA, vial conc. 106.0 mg/mL (Table 2A)) was “Yes”. For the same compound, the Soluble ([1]; IPAc, vial conc. 32.0 mg/mL) was “Yes”, the Soluble ([1]; MECN, vial conc. 100.0 mg/mL (Table 2A)) was “Yes” and the Soluble ([1]; MEK, vial conc. 56.0 mg/mL) was “Yes”. For the same compound, the Soluble ([1]; MTBE, vial conc. 13.0 mg/mL) was “Yes”, the Soluble ([1]; MeCN, vial conc. 16.0 mg/mL) was “Yes” and the “solubility at ambient temperature” value ([1]; MeCN, dioxane, acetone, MTBE, EtOH, EtOAc, IPAc, IPA, THF, MEK, DMF, AcOH, MeOH, toluene, DCM) was “good solubility”. For the same compound, the Soluble ([1]; MeOH, vial conc. 52.0 mg/mL) was “Yes”, the Soluble ([1]; MeOH, vial conc. 150.0 mg/mL (Table 2A)) was “Yes” and the Soluble ([1]; THF, vial conc. 52.0 mg/mL) was “Yes”. The Soluble ([1]; Toluene, vial conc. 56.0 mg/mL) was “Yes”, the Soluble ([1]; Water, vial conc. 0.3 mg/mL) was “Partially” and the Soluble ([1]; c-Hexane, vial conc. 0.3 mg/mL) was “No”. The Solubility ([1]; c-hexane, heptane, and water) was “limited or no solubility”, the “PX-866 concentration in supernatant” value ([2]; 4° C.) was 7.0 mg/mL and the “PX-866 concentration in supernatant” value ([2]; RT) was 9.9 mg/mL. For the same compound, the “PX-866 concentration in supernatant” value ([2]; −20° C.) was 6.2 mg/mL, the stability in solution [3] was “poor stability” and the “purity after water slurry” value [4] was “notable decrease in PX-866 purity”. For the same compound, the “inhibition of PI-3K” value [5] was “irreversibly inhibits”, the “efficacy in human trials” value [6] was “has shown efficacy” and the “efficacy in pulmonary fibrosis” value (pulmonary fibrosis) was “has shown efficacy”.
